Data: PubChem BioAssay AID328 (DTP/NCI, 2004)
Several values for one entry are separate records, joined by “and”; a condition that tells them apart may be missing. Equal values may be shown once. Inconclusive results and toxic doses are left out. Non-standard residues stand in square brackets, D forms with d. Residues, ends and D or L forms follow the SMILES beside them. ξ: configuration not given here. *: point of attachment. Cbz = O=C(OCc1ccccc1)*; Boc = CC(C)(C)OC(=O)*; ξK = NCCCCC(N)C(=O)O; OBn = c1ccc(CO*)cc1

System: BDF1 mice, P388 leukemia ip, median survival T/C
Assay: NCI In Vivo Anticancer Drug Screen. Data for tumor model P388 Leukemia (intraperitoneal) in B6D2F1 (BDF1) mice
Settings: endpoint: median survival time, higher = longer survival
How it was run: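 Read-out is survival of treated animals expressed relative to the vehicle group, as a T/C ratio.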

[1] = dose: 50.0 mg/kg/injection, schedule: Q01DX005 (ip), vehicle: saline with Tween-80
[2] = dose: 200.0 mg/kg/injection, schedule: Q01DX005 (ip), vehicle: saline with Tween-80
[3] = dose: 100.0 mg/kg/injection, schedule: Q01DX009 (ip), vehicle: saline with Tween-80
[4] = dose: 200.0 mg/kg/injection, schedule: Q01DX009 (ip), vehicle: saline with Tween-80
[5] = dose: 400.0 mg/kg/injection, schedule: Q01DX009 (ip), vehicle: saline with Tween-80
[6] = dose: 100.0 mg/kg/injection, schedule: Q01DX009 (ip), vehicle: Klucel (hydroxypropylcellulose) (HPC)
[7] = dose: 100.0 mg/kg/injection, schedule: Q04DX003 (ip), vehicle: Klucel (hydroxypropylcellulose) (HPC)
[8] = dose: 200.0 mg/kg/injection, schedule: Q01DX009 (ip), vehicle: Klucel (hydroxypropylcellulose) (HPC)
[9] = dose: 200.0 mg/kg/injection, schedule: Q04DX003 (ip), vehicle: Klucel (hydroxypropylcellulose) (HPC)
[10] = dose: 400.0 mg/kg/injection, schedule: Q04DX003 (ip), vehicle: Klucel (hydroxypropylcellulose) (HPC)
[11] = dose: 50.0 mg/kg/injection, schedule: Q01DX009 (ip), vehicle: saline
[12] = dose: 100.0 mg/kg/injection, schedule: Q01DX009 (ip), vehicle: saline
[13] = dose: 200.0 mg/kg/injection, schedule: Q01DX009 (ip), vehicle: saline
[14] = dose: 400.0 mg/kg/injection, schedule: Q01DX009 (ip), vehicle: saline
[15] = dose: 50.0 mg/kg/injection, schedule: Q01DX009 (ip), vehicle: saline with Tween-80
[16] = dose: 100.0 mg/kg/injection, schedule: Q04DX003 (ip), vehicle: saline with Tween-80
[17] = dose: 200.0 mg/kg/injection, schedule: Q04DX003 (ip), vehicle: saline with Tween-80
[18] = dose: 400.0 mg/kg/injection, schedule: Q04DX003 (ip), vehicle: saline with Tween-80
[19] = dose: 12.5 mg/kg/injection, schedule: Q01DX009 (ip), vehicle: saline with Tween-80
[20] = dose: 25.0 mg/kg/injection, schedule: Q01DX009 (ip), vehicle: saline with Tween-80
[21] = dose: 6.25 mg/kg/injection, schedule: Q04DX003 (ip), vehicle: saline with Tween-80
[22] = dose: 12.5 mg/kg/injection, schedule: Q04DX003 (ip), vehicle: saline with Tween-80
[23] = dose: 25.0 mg/kg/injection, schedule: Q04DX003 (ip), vehicle: saline with Tween-80
[24] = dose: 50.0 mg/kg/injection, schedule: Q04DX003 (ip), vehicle: saline with Tween-80
[25] = dose: 300.0 mg/kg/injection, schedule: Q04DX003 (ip), vehicle: saline with Tween-80
[26] = dose: 400.0 mg/kg/injection, schedule: Q01DX009 (ip), vehicle: Klucel (hydroxypropylcellulose) (HPC)

SMILES: CC(C)(C)OC(=O)NCC(=O)NC(CCCCNC(=O)OCc1ccccc1)C(=O)OCc1ccccc1 (stereo not drawn) (Boc-Gly-[ξK](Cbz)-OBn)
- T/C [1]: 95 % of control
- T/C (dose: 100.0 mg/kg/injection, schedule: Q01DX005 (ip), vehicle: saline with Tween-80): 90 % of control
- T/C [2]: 104 % of control

SMILES: Cc1nc2nccnc2[nH]1
- T/C [3]: 91 % of control
- T/C [4]: 91 % of control
- T/C [5]: 100 % of control

SMILES: CC(=O)Nc1nncs1
- T/C (dose: 100.0 mg/kg/injection, schedule: Q01DX009 (ip), vehicle: saline sonified): 113 % of control
- T/C (dose: 200.0 mg/kg/injection, schedule: Q01DX009 (ip), vehicle: saline sonified): 109 % of control

SMILES: Cc1c(NC(=O)Nc2cccc(F)c2)c(=O)n(-c2ccccc2)n1C
- T/C [3]: 120 % of control
- T/C [4]: 95 % of control
- T/C [5]: 90 % of control

SMILES: CCC1(c2ccccc2)NC(=O)N(C)C1=O (stereo unspecified)
- T/C [6]: 100 % of control
- T/C [7]: 104 % of control
- T/C [8]: 100 % of control
- T/C [9]: 95 % of control
- T/C [10]: 95 % of control

SMILES: O=C1C=CC(=O)N1Cc1ccco1
- T/C [11]: 100 % of control
- T/C [12]: 91 % of control and 95 % of control
- T/C [13]: 100 % of control
- T/C [14]: 91 % of control

SMILES: Cc1occc(=O)c1O
- T/C [15]: 88 % of control
- T/C [3]: 117 % of control
- T/C [4]: 90 % of control
- T/C [5]: 106 % of control

SMILES: Nc1ccc(-c2ccc(N)cc2Br)c(Br)c1
- T/C [16]: 100 % of control
- T/C [17]: 95 % of control
- T/C [18]: 104 % of control

SMILES: O=c1[nH]cc(Br)c2sccc12
- T/C (dose: 150.0 mg/kg/injection, schedule: Q01DX009 (ip), vehicle: saline): 90 % of control
- T/C (dose: 225.0 mg/kg/injection, schedule: Q01DX009 (ip), vehicle: saline): 86 % of control

SMILES: CCCCCCCCCCCCN1CCCC(C)C1 (stereo unspecified)
- T/C [19]: 114 % of control
- T/C [20]: 109 % of control
- T/C [15]: 98 % of control and 120 % of control

SMILES: Clc1nc2nsnc2nc1Cl
- T/C [21]: 101 % of control
- T/C [19]: 104 % of control
- T/C [22]: 94 % of control and 115 % of control
- T/C [20]: 98 % of control
- T/C [23]: 101 % of control and 107 % of control
- T/C [15]: 107 % of control
- T/C [24]: 97 % of control and 107 % of control
- T/C [3]: 122 % of control
- T/C [16]: 105 % of control
- T/C [4]: 118 % of control
- T/C [17]: 110 % of control and 112 % of control
- T/C [25]: 115 % of control
- T/C [5]: 105 % of control

SMILES: Cc1cc(N(C)C)ccc1C=O
- T/C [6]: 100 % of control
- T/C [7]: 100 % of control
- T/C [8]: 95 % of control
- T/C [26]: 109 % of control
- T/C [10]: 91 % of control

SMILES: CCN(Cc1ccccc1)c1ccc(/C=C/c2ccnc3ccccc23)cc1
- T/C [15]: 100 % of control
- T/C [3]: 90 % of control
- T/C [4]: 108 % of control

SMILES: COc1cc2c(cc1OC)C1CC(O)(c3nccc4cc(OC)c(OC)cc34)CCN1CC2 (stereo unspecified)
- T/C [15]: 91 % of control
- T/C [3]: 91 % of control
- T/C [4]: 87 % of control

SMILES: C=C1C(=O)OC2C=C(C)CC3C=C(CCC=C(C)CCC12)C(=O)O3 (stereo unspecified)
- T/C (dose: 10.0 mg/kg/injection, schedule: Q01DX009 (ip), vehicle: saline): 88 % of control
- T/C (dose: 30.0 mg/kg/injection, schedule: Q01DX009 (ip), vehicle: saline): 105 % of control
- T/C (dose: 40.0 mg/kg/injection, schedule: Q01DX009 (ip), vehicle: saline): 94 % of control
- T/C (dose: 60.0 mg/kg/injection, schedule: Q01DX009 (ip), vehicle: saline): 120 % of control
- T/C (dose: 120.0 mg/kg/injection, schedule: Q01DX009 (ip), vehicle: saline): 112 % of control

SMILES: COC(=O)OCCOC(=O)OC
- T/C [12]: 100 % of control
- T/C (dose: 100.0 mg/kg/injection, schedule: Q04DX003 (ip), vehicle: saline): 95 % of control
- T/C [13]: 110 % of control
- T/C (dose: 200.0 mg/kg/injection, schedule: Q04DX003 (ip), vehicle: saline): 100 % of control
- T/C [14]: 100 % of control
- T/C (dose: 400.0 mg/kg/injection, schedule: Q04DX003 (ip), vehicle: saline): 100 % of control

SMILES: CSC1=NN(c2ccccc2)CN(c2ccccc2)N1C
- T/C [15]: 95 % of control
- T/C [3]: 88 % of control
- T/C [4]: 108 % of control

SMILES: C=C(C)Cc1cnc(SCc2ccccc2)[nH]c1=O
- T/C [7]: 104 % of control
- T/C [9]: 109 % of control
- T/C [10]: 113 % of control

SMILES: CCC1C/C(=C\NC(N)=O)C(=O)O1 (stereo unspecified)
- T/C [21]: 96 % of control
- T/C [22]: 111 % of control
- T/C [23]: 104 % of control
- T/C [24]: 104 % of control
- T/C [18]: 86 % of control

SMILES: CCCCCCCN(CCCCCCC)CC(O)c1cc2ccccc2c2cnccc12 (stereo unspecified)
- T/C (dose: 75.0 mg/kg/injection, schedule: Q04DX003 (ip), vehicle: saline with Tween-80): 104 % of control
- T/C (dose: 150.0 mg/kg/injection, schedule: Q04DX003 (ip), vehicle: saline with Tween-80): 113 % of control
- T/C [25]: 95 % of control

SMILES: O=C1CCCSc2ccccc21
- T/C [6]: 120 % of control
- T/C [7]: 100 % of control
- T/C [8]: 115 % of control
- T/C [9]: 100 % of control
- T/C [26]: 115 % of control
- T/C [10]: 100 % of control

SMILES: CCC1=C2C(=O)c3ccccc3C2=C(C)S(=O)(=O)O1
- T/C (dose: 6.25 mg/kg/injection, schedule: Q01DX009 (ip), vehicle: saline with Tween-80): 113 % of control and 118 % of control
- T/C [19]: 118 % of control
- T/C [20]: 122 % of control

SMILES: O=c1c2ccccc2nnn1Cc1ccco1
- T/C [1]: 99 % of control
- T/C [2]: 89 % of control

SMILES: Cc1[nH]nc(C(N)=O)c1N=NN(C)C
- T/C (dose: 132.0 mg/kg/injection, schedule: Q04DX003 (ip), vehicle: saline with Tween-80): 182 % of control
- T/C [17]: 186 % of control
- T/C [25]: 100 % of control

SMILES: [Co].[N-]=C=S.[N-]=C=S.[N-]=C=S.[NH2-].[NH2-].[NH2-]
- T/C (dose: 12.5 mg/kg/injection, schedule: Q01DX005 (ip), vehicle: saline with Tween-80): 107 % of control
- T/C (dose: 25.0 mg/kg/injection, schedule: Q01DX005 (ip), vehicle: saline with Tween-80): 110 % of control
- T/C [1]: 117 % of control
- T/C (dose: 100.0 mg/kg/injection, schedule: Q01DX001 (ip), vehicle: suspension in saline): 98 % of control
- T/C (dose: 200.0 mg/kg/injection, schedule: Q01DX001 (ip), vehicle: suspension in saline): 120 % of control
- T/C (dose: 400.0 mg/kg/injection, schedule: Q01DX001 (ip), vehicle: suspension in saline): 98 % of control

SMILES: CC(C)(C)N1CCOCC1
- T/C (dose: 12.5 mg/kg/injection, schedule: Q04DX003 (ip), vehicle: saline): 109 % of control
- T/C (dose: 25.0 mg/kg/injection, schedule: Q01DX009 (ip), vehicle: saline): 95 % of control
- T/C (dose: 25.0 mg/kg/injection, schedule: Q04DX003 (ip), vehicle: saline): 95 % of control
- T/C [11]: 86 % of control
- T/C (dose: 50.0 mg/kg/injection, schedule: Q04DX003 (ip), vehicle: saline): 90 % of control
- T/C (dose: 75.0 mg/kg/injection, schedule: Q04DX003 (ip), vehicle: saline): 105 % of control
- T/C (dose: 115.0 mg/kg/injection, schedule: Q04DX003 (ip), vehicle: saline): 120 % of control

SMILES: Cc1ccc(S(=O)(=O)Nc2ccccc2)c(CC(O)(c2ccccc2)c2ccccc2)c1
- T/C [15]: 90 % of control
- T/C [3]: 95 % of control

SMILES: CCCCCCCCNCCCCCCCC
- T/C (dose: 9.0 mg/kg/injection, schedule: Q01DX009 (ip), vehicle: gum acacia): 108 % of control and 113 % of control
- T/C (dose: 9.0 mg/kg/injection, schedule: Q04DX003 (ip), vehicle: gum acacia): 100 % of control
- T/C (dose: 18.0 mg/kg/injection, schedule: Q01DX009 (ip), vehicle: gum acacia): 95 % of control and 108 % of control
- T/C (dose: 18.0 mg/kg/injection, schedule: Q04DX003 (ip), vehicle: gum acacia): 95 % of control
- T/C (dose: 37.0 mg/kg/injection, schedule: Q01DX009 (ip), vehicle: gum acacia): 104 % of control and 116 % of control
- T/C (dose: 37.0 mg/kg/injection, schedule: Q04DX003 (ip), vehicle: gum acacia): 100 % of control
